Measurements reported in ChEMBL document CHEMBL1129748, “Structure-activity relationships of 4-hydroxy-3-nitroquinolin-2(1H)-ones as novel antagonists at the glycine site of N-methyl-D-aspartate receptors” (J Med Chem, 1996).

Legend:
[1] = biological target: Glutamate NMDA receptor; test: Inhibition of [3H]DCKA binding to NMDA receptor of rat brain membranes.; format: cell membranes, Membrane
[2] = biological target: T1, Glutamate receptor ionotropic, AMPA (Rattus norvegicus) (UniProt P19491+P19492+P19493+P19490); test: Compound was tested for inhibition of AMPA receptors was measured in oocytes expressing rat cerebral cortex poly(A)+ RNA.(Three cells were examined ); format: functional, cell-based; settings: Oocyte
[3] = Compound was tested for steady-state selectivity index for inhibition at NMDAreceptor glycine sites was estimated by dividing Kb AMPA by Kb glycine.; format: functional
[4] = biological target: Glutamate NMDA receptor; test: Compound was tested for inhibition of [3H]DCKA binding to NMDA receptor of rat brain membranes; format: cell membranes, Membrane
[5] = Compound was tested for steady-state selectivity index for inhibition at NMDA receptor glycine sites was estimated by dividing Kb AMPA by Kb glycine.; format: functional
[6] = biological target: T1, Glutamate receptor ionotropic, AMPA (Rattus norvegicus); test: Compound was tested for inhibition of AMPA receptors was measured in oocytes expressing rat cerebral cortex poly(A)+ RNA.(Three cells were examined); format: functional, cell-based; settings: Oocyte

SMILES	IC50 [1]	further results
O=Nc1c(O)c2cc(F)c(Cl)c(F)c2[nH]c1=O	910 nM	
O=[N+]([O-])c1c(O)nc2cc(Cl)c(Cl)c(Cl)c2c1O	220 nM	Kb [2]: 19 µM; Selectivity [3]: 240
O=Nc1c(O)nc2c(Cl)cccc2c1O	> 100000 nM	
Oc1nc2ccccc2nc1O	9800 nM	
O=[N+]([O-])c1c(O)nc2ccc(Cl)cc2c1O	> 100000 nM	
O=Nc1c(O)c2c(F)c(F)c(F)c(F)c2[nH]c1=O	3300 nM	
O=[N+]([O-])c1c(O)nc2c(F)c(F)c(F)c(F)c2c1O	> 100000 nM	
O=[N+]([O-])c1c(O)nc2cc(Cl)ccc2c1O		IC50 [4]: 1500 nM
O=Nc1c(O)nc2cccc(Cl)c2c1O	4400 nM	
O=c1[nH]c2c(F)c(F)c(F)c(F)c2[nH]c1=O	730 nM	
Cc1cc(C)c2c(O)c([N+](=O)[O-])c(O)nc2c1	290 nM	Selectivity [5]: 164
Oc1nc2cc(F)c(Cl)c(F)c2nc1O	630 nM	
O=Nc1c(O)nc2ccccc2c1O	1400 nM	
O=Nc1c(O)nc2cc(Cl)c(Cl)cc2c1O	12 nM	
O=[N+]([O-])c1c(O)nc2c(Cl)c(Cl)c(Cl)cc2c1O	> 100000 nM	
O=Nc1c(O)c2cc(Cl)ccc2[nH]c1=O	3400 nM	

Now from value to compound, other results behind:

IC50 [1]	SMILES	further results
280 nM	Oc1nc2cc(Cl)cc(Cl)c2nc1O	
34000 nM	O=[N+]([O-])c1c(O)nc2ccccc2c1O	
61000 nM	O=[N+]([O-])c1c(O)nc2cccc(Cl)c2c1O	
30 nM	Oc1nc2cc(Cl)c(Cl)c(Cl)c2nc1O	
> 100000 nM	O=[N+]([O-])c1c(O)nc2c(Cl)cccc2c1O	
2100 nM	Cc1cc(C)c2nc(O)c(O)nc2c1	
40000 nM	O=[N+]([O-])c1c(O)nc2c(F)c(Cl)c(F)cc2c1O	
33 nM	O=Nc1c(O)c2c(Cl)cc(Cl)cc2[nH]c1=O	
1800 nM	O=c1[nH]c2ccc(Cl)cc2[nH]c1=O	
53 nM	O=Nc1c(O)nc2cc(Cl)ccc2c1O	
7 nM	O=Nc1c(O)nc2cc(Cl)c(Cl)c(Cl)c2c1O	
130 nM	Oc1nc2cc(Cl)c(Cl)cc2nc1O [2,3-DIHYDROXY-6,7-DICHLOROQUINOXALINE]	
37 nM	Cc1cc(C)c2c(O)c(N=O)c(=O)[nH]c2c1	
400 nM	O=[N+]([O-])c1c(O)nc2cc(Cl)c(Cl)cc2c1O	
220 nM	O=[N+]([O-])c1c(O)nc2cc(Cl)cc(Cl)c2c1O	Selectivity [5]: 118; Kb [6]: 37 µM
